A value given as a limit tells only on which side of the number the result lay.

The term inhibition in vivo denotes the percentage by which the read-out fell short of the control. As usually defined, the Kb is the affinity of an antagonist, worked out from how it opposes an agonist.

Assay [1] concerns Rattus norvegicus. The assay is described as follows: Ex vivo inhibition of [3H]-Diprenophine binding to mu opioid receptor in striatum/nucleus accumbens isolated from rat treated with compound at 7 mg/kg, po for 6 hrs measured after 30 mins post [3H]-Diprenophine addition to tissue relative to control. In kind it is functional.
The test system of assay [2] is Rattus norvegicus. The assay is described as follows: Ex vivo inhibition of [3H]-Diprenophine binding to delta opioid receptor in striatum/nucleus accumbens isolated from rat treated with compound at 7 mg/kg, po for 6 hrs measured after 30 mins post [3H]-Diprenophine addition to tissue relative to control. Format: functional.
Assay [3] has as its system Rattus norvegicus. The assay is described as follows: Ex vivo inhibition of [3H]-Diprenophine binding to kappa opioid receptor in striatum/nucleus accumbens isolated from rat treated with compound at 7 mg/kg, po for 6 hrs measured after 30 mins post [3H]-Diprenophine addition to tissue relative to control. In kind it is functional.
Assay [4] deals with Mu-type opioid receptor (Homo sapiens) (UniProt P35372). The assay is described as follows: Antagonist activity at mu opioid receptor (unknown origin) expressed in membranes assessed as inhibition of DAMGO1-induced GTP-gamma-[35S] binding after 4 hrs by micro beta scintillation counting analysis. Background: Binding of GTPγS marks nucleotide exchange on a G protein.
Sequence of Mu-type opioid receptor (Homo sapiens) (P35372 whole entry): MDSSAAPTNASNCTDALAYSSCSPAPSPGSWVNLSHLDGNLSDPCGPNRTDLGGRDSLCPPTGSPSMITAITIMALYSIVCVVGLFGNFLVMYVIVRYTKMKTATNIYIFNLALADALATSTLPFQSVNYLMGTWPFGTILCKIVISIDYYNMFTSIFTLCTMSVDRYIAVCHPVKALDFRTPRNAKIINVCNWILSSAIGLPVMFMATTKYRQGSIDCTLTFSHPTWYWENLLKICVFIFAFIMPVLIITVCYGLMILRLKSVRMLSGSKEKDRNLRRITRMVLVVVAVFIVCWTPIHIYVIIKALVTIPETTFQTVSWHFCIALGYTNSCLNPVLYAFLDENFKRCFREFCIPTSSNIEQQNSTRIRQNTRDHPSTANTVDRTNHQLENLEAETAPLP
Assay [5] addresses Kappa-type opioid receptor (Homo sapiens) (UniProt P41145). As to the kind of experiment: Antagonist activity at kappa opioid receptor (unknown origin) expressed in membranes assessed as inhibition of U69593-induced GTP-gamma-[35S] binding after 4 hrs by micro beta scintillation counting analysis.
The target of assay [6] is Delta-type opioid receptor (Homo sapiens) (UniProt P41143). As to the kind of experiment: Antagonist activity at delta opioid receptor (unknown origin) expressed in membranes assessed as inhibition of DPDPE-induced GTP-gamma-[35S] binding after 4 hrs by micro beta scintillation counting analysis.
Sequence of Delta-type opioid receptor (Homo sapiens) (P41143 whole entry): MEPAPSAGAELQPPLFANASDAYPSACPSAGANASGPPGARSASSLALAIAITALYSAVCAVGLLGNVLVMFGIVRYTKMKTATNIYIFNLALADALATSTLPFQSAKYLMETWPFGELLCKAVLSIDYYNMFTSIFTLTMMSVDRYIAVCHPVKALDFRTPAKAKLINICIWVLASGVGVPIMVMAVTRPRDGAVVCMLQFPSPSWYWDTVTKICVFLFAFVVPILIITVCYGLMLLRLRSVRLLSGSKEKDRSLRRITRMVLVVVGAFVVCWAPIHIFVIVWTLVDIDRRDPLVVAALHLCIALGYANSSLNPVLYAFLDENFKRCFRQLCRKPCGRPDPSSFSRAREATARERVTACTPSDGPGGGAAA
Assay [7] has as its system Rattus norvegicus. The assay is described as follows: In vivo inhibition of opioid receptor in obese rat assessed as compound dose causing effective decrease in feeding behavior. In kind it is functional.
Assay [8] relates to Rattus norvegicus. As to the kind of experiment: Antiobesity activity in po dosed diet-induced obese rat assessed as inhibition of food consumption measured up to 24 hrs by indirect calorimetry assay. As to conditions: read-out: MED. Format: functional.
The subject of assay [9] is Rattus norvegicus. The assay is described as follows: Antiobesity activity in diet-induced obese rat assessed as energy balance at 3 mg/kg, po measured up to 24 hrs by indirect calorimetry assay. In kind it is functional.

Sequence of Kappa-type opioid receptor (Homo sapiens) (P41145 whole entry): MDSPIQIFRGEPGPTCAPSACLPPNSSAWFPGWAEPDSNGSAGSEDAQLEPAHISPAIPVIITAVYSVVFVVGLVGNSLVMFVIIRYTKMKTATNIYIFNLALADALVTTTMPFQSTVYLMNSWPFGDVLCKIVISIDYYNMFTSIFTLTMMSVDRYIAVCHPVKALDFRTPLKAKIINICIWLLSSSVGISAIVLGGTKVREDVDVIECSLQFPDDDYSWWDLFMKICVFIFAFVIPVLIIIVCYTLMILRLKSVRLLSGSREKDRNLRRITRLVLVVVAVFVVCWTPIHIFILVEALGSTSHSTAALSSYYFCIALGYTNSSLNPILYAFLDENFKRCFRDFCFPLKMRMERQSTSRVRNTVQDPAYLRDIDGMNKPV

As to `COc1cc(CNCCc2ccccc2F)ccc1Oc1ccc(C(N)=O)cn1`, the inhibition in vivo at 7 mg/kg in assay [1], in assay [2] and in [3] was 54% each time.
`CC(C)CCNCc1ccc(Oc2ccc(C(N)=O)cn2)cc1`: the inhibition in vivo at 7 mg/kg in assay [1], in assay [2] and in assay [3] was more than 40% each time. Further, the Kb in [4] is 0.2 nM; in [5] it was 0.4 nM; in assay [6], 4.4 nM. In addition, the ED in assay [7] turned out to be 0.3 mg/kg. For the same molecule, the minimal effective dose in [8] was 0.3 mg/kg. The Activity in assay [9] was -35 kcal/kg/day.
On to `NC(=O)c1ccc(Oc2ccc(CNCCC3CCCCC3)cc2)nc1`, for which the inhibition in vivo at 7 mg/kg in [1], in assay [2] and in assay [3] was 79% in each case.
As to `CC(C)CCNCc1ccc(Oc2ccc(C(N)=O)cn2)c(F)c1`, the inhibition in vivo at 7 mg/kg in [1], in assay [2] and in [3] was more than 65% each time. Moreover, the ED in assay [7] is given as 0.3 mg/kg. For the same molecule, the minimal effective dose in assay [8] is 0.3 mg/kg. Besides, in assay [9], the Activity was -81 kcal/kg/day.
Consider `CCCCNCc1ccc(Oc2ccc(C(N)=O)cn2)c(C)c1`, for which the inhibition in vivo at 7 mg/kg in assay [1], in [2] and in assay [3] was 38% each time.
For the molecule `Cc1cc(CNCCC(C)(C)C)ccc1Oc1ccc(C(N)=O)cn1`, the inhibition in vivo at 7 mg/kg in assay [1], in [2] and in assay [3] was 59% throughout.
Regarding `NC(=O)c1ccc(Oc2ccc(CNCCC3CCCC3)cc2)nc1`, the inhibition in vivo at 7 mg/kg in [1], in assay [2] and in assay [3] was more than 60% each time. For the same molecule, the ED entry in assay [7] is “<=3 ug/kg”. Moreover, the minimal effective dose in [8] was not above 3 mg/kg. Moreover, the Activity in assay [9] is -39 kcal/kg/day.
`NC(=O)c1ccc(Oc2ccc(CCNCc3cccc(F)c3)cc2Cl)nc1`: the Kb in assay [4] was determined as 0.41 nM; in [5], 4.5 nM; in assay [6] it was 5.78 nM.
With `CC(C)CCNCc1ccc(Oc2ccc(C(N)=O)cn2)c(Cl)c1`, the inhibition in vivo at 7 mg/kg in assay [1], in [2] and in assay [3] was 77% in each case.
As to `COc1cc(CNCCC(C)(C)C)ccc1Oc1ccc(C(N)=O)cn1`, the inhibition in vivo at 7 mg/kg in assay [1], in [2] and in [3] was 55% in each case.
In the case of `CC(C)(C)CCNCc1ccc(Oc2ccc(C(N)=O)cn2)c(Cl)c1`, the inhibition in vivo at 7 mg/kg in [1], in [2] and in assay [3] was 83% in each case.
As for `C[C@H]1CN(CC[C@H](O)C2CCCCC2)CC[C@@]1(C)c1cccc(O)c1`, the inhibition in vivo at 7 mg/kg in assay [1], in [2] and in [3] was more than 40% each time. For the same molecule, the minimal effective dose in assay [8] is 1 mg/kg. In [9], the Activity was -36 kcal/kg/day.
With `NC(=O)c1ccc(Oc2ccc(CCNCc3cccc(Cl)c3)cc2Cl)nc1`, the Kb in assay [4] turned out to be 0.503 nM; in assay [5] it was 6.86 nM; in [6] it was 30.1 nM.
`Cc1cc(CNCCC(C)C)ccc1Oc1ccc(C(N)=O)cc1F`: the inhibition in vivo at 7 mg/kg in [1], in assay [2] and in [3] was 58% throughout.
With `CCCCCNCc1ccc(Oc2ccc(C(N)=O)cn2)c(OC)c1`, the inhibition in vivo at 7 mg/kg in assay [1], in assay [2] and in assay [3] was 75% in each case.
Consider `NC(=O)c1ccc(Oc2ccc(CNCCc3cccc(F)c3)cc2)nc1`, for which the inhibition in vivo at 7 mg/kg in assay [1], in [2] and in assay [3] was 40% throughout. The Kb in [4] was 0.072 nM; in assay [5] it was 0.894 nM; in [6] it was 0.677 nM.
As to `CCCCCNCc1ccc(Oc2ccc(C(N)=O)nc2)c(F)c1`, the inhibition in vivo at 7 mg/kg in assay [1], in assay [2] and in assay [3] was 55% in each case.
Consider `CC(C)(C)CCNCc1ccc(Oc2ccc(C(N)=O)cn2)cc1`, for which the inhibition in vivo at 7 mg/kg in assay [1], in [2] and in assay [3] was 62% in each case. In addition, the ED entry in assay [7] is reported as “<=3 ug/kg”. The minimal effective dose in assay [8] is not above 3 mg/kg. Also, the Activity in assay [9] was -56 kcal/kg/day.
Regarding `NC(=O)c1ccc(Oc2ccc(CNCCc3cccs3)cc2)nc1`, the inhibition in vivo at 7 mg/kg in [1], in assay [2] and in assay [3] was more than 40% throughout. Further, the antagonist equilibrium constant (Kb) worked out at 0.068 nM in assay [4], 0.355 nM in assay [5] and 0.708 nM in [6]. Further, in assay [7], the ED result was “<=3 ug/kg”. Moreover, in assay [8], the minimal effective dose was not above 3 mg/kg. The Activity in assay [9] was -19 kcal/kg/day.
`NC(=O)c1ccc(Oc2ccc(CCNCc3ccccc3)cc2Cl)nc1`: the Kb in assay [4] worked out at 0.843 nM; in [5] it was 7.86 nM; in assay [6] it was 17.5 nM.
Turning to `Cc1cc(CNCCC(C)C)ccc1Oc1ccc(C(N)=O)cn1`, the inhibition in vivo at 7 mg/kg in assay [1], in assay [2] and in [3] was 55% throughout. The ED in [7] stood at 0.3 mg/kg. Further, in assay [8], the minimal effective dose amounted to 0.3 mg/kg. Besides, the Activity in assay [9] is -68 kcal/kg/day.
`NC(=O)c1ccc(Oc2ccc3c(c2)CCCN(CCc2ccccc2)C3)nc1`: the inhibition in vivo at 7 mg/kg in [1], in assay [2] and in assay [3] was 62% in each case.
`O=C1CC[C@@]2(O)[C@H]3Cc4ccc(O)c5c4[C@@]2(CCN3CC2CC2)[C@H]1O5` [NALTREXONE]: the inhibition in vivo at 7 mg/kg in [1], in assay [2] and in assay [3] was less than 40% each time. For the same molecule, the minimal effective dose in [8] was more than 10 mg/kg.
With `Cc1ccccc1CNCCc1ccc(Oc2ccc(C(N)=O)cn2)c(Cl)c1`, the figures for the Kb in assay [4], in assay [5] and in [6] were 0.281 nM, 3.38 nM and 8.9 nM, respectively.
For the molecule `NC(=O)c1ccc(Oc2ccc(CNCCc3ccc(F)cc3)cc2)cc1`, the inhibition in vivo at 7 mg/kg in assay [1], in assay [2] and in assay [3] was 50% in each case.
Regarding `CCCCCNCc1ccc(Oc2ccc(C(N)=O)cc2)cc1`, the ED in assay [7] was 3 mg/kg. Further, in assay [8], the minimal effective dose came to 3 mg/kg. In addition, the Activity in [9] is -65 kcal/kg/day.

The values are drawn from ChEMBL document CHEMBL3880403, “Diaryl ethers as opioid receptor antagonist” (2006).
